Measured values as given in patent US11739098B2 (BRISTOL-MYERS SQUIBB COMPANY, priority 2017, dated 2023).

Tests used:
Type in all cases: cell-based
[1] = biological target: T1, human TLR7 (Homo sapiens, UniProt Q9NYK1); assay: TLR7 inhibition reporter assay (HEK-Blue cells, SEAP reporter, gardiquimod stimulation); details: HEK-Blue cells overexpressing human TLR7, SEAP reporter, gardiquimod 7.5 μM
T1 construct: host or cells: HEK-Blue cells (HEK293-derived reporter line)
T1 sequence (Q9NYK1 27-1049): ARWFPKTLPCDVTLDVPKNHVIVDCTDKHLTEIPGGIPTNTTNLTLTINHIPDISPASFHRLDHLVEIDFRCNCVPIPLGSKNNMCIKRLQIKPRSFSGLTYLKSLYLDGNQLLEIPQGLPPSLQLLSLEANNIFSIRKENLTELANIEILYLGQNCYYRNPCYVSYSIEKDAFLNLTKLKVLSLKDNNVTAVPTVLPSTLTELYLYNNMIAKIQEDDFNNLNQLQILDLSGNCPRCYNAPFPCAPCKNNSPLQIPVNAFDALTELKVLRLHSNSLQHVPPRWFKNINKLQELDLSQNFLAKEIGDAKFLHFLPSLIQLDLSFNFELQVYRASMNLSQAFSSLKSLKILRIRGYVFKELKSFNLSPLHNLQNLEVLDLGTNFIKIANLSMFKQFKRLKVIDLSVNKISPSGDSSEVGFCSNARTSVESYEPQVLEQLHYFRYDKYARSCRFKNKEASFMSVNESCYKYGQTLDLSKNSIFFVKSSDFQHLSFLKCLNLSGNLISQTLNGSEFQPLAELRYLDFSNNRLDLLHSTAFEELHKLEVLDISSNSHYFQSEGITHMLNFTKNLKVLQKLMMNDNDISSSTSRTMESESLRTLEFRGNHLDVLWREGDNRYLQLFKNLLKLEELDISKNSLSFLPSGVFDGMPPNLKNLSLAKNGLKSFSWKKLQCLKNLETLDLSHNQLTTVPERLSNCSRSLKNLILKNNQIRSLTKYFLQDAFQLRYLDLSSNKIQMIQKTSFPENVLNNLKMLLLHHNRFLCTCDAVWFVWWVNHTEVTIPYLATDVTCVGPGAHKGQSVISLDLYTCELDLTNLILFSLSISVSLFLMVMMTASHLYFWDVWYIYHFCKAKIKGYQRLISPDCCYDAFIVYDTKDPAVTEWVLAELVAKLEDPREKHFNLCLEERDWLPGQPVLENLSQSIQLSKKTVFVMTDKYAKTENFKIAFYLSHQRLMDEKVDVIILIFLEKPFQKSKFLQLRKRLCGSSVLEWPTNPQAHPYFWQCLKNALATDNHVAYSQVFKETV
Procedure: (§1) TLR7/8/9 Inhibition Reporter Assays
(§2) HEK-Blue™-cells (Invivogen) overexpressing human TLR7, TLR8 or TLR9 receptors were used for screening inhibitors of these receptors using an inducible SEAP (secreted embryonic alkaline phosphatase) reporter gene under the control of the IFN-β minimal promoter fused to five NF-κB and AP-1-binding sites. Briefly, cells are seeded into Greiner 384 well plates (15000 cells per well for TLR7, 20,000 for TLR8 and 25,000 for TLR9) and then treated with test compounds in DMSO to yield a final dose response concentration range of 0.05 nM-50 μM. After a 30 minute compound pre-treatment at room temperature, the cells are then stimulated with a TLR7 ligand (gardiquimod at a final concentration of 7.5 μM), TLR8 ligand (R848 at a final concentration of 15.9 μM) or TLR9 ligand (ODN2006 at a final concentration of 5 nM) to activate NF-κB and AP-1 which induce the production of SLAP After a 22 hour incubation at […], SLAP levels are determined with the addition of HLK-Blue™ Detection reagent (Invivogen), a cell culture medium that allows for detection of SLAP, according to manufacturer's specifications. The percent inhibition is determined as the […] in the HEK-Blue signal present in wells treated with agonist plus DMSO alone compared to wells treated with a known inhibitor.

[2] = biological target: T2, human TLR9 (Homo sapiens, UniProt Q9NR96); assay: TLR9 inhibition reporter assay (HEK-Blue cells, SEAP reporter, ODN2006 stimulation); details: HEK-Blue cells overexpressing human TLR9, SEAP reporter, ODN2006 5 nM
T2 construct: host or cells: HEK-Blue cells (HEK293-derived reporter line)
T2 sequence (Q9NR96 26-1032): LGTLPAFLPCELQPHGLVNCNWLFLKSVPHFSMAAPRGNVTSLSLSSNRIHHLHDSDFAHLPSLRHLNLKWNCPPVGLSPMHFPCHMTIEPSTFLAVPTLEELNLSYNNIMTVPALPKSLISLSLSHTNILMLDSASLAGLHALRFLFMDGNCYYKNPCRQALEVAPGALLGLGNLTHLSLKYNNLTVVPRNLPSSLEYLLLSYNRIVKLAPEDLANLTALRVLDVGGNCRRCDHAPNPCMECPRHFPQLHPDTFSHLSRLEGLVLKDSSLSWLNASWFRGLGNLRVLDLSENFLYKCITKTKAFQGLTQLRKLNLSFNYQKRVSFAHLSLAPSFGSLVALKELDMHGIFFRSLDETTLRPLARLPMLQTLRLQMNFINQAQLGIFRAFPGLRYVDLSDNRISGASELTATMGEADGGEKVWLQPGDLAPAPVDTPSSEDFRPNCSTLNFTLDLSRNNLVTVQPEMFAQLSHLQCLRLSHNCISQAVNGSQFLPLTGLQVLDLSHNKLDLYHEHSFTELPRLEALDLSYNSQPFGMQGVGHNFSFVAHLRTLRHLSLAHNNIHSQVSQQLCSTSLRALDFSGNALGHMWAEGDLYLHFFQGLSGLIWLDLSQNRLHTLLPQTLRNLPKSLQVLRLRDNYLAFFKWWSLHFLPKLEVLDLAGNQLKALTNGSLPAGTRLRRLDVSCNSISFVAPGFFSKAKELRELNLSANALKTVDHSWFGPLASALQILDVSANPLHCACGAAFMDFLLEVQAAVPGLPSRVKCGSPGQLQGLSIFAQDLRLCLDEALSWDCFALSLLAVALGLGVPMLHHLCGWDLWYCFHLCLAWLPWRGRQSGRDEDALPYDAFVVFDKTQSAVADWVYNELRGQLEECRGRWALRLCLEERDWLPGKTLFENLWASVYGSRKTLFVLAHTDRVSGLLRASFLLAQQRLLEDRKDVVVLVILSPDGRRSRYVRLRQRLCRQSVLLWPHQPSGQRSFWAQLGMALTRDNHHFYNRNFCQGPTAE
Procedure: as §1, §2

[3] = biological target: T3, human TLR8 (Homo sapiens, UniProt Q9NR97); assay: TLR8 inhibition reporter assay (HEK-Blue cells, SEAP reporter, R848 stimulation); details: HEK-Blue cells overexpressing human TLR8, SEAP reporter, R848 15.9 μM
T3 construct: host or cells: HEK-Blue cells (HEK293-derived reporter line)
T3 sequence (Q9NR97 27-1041): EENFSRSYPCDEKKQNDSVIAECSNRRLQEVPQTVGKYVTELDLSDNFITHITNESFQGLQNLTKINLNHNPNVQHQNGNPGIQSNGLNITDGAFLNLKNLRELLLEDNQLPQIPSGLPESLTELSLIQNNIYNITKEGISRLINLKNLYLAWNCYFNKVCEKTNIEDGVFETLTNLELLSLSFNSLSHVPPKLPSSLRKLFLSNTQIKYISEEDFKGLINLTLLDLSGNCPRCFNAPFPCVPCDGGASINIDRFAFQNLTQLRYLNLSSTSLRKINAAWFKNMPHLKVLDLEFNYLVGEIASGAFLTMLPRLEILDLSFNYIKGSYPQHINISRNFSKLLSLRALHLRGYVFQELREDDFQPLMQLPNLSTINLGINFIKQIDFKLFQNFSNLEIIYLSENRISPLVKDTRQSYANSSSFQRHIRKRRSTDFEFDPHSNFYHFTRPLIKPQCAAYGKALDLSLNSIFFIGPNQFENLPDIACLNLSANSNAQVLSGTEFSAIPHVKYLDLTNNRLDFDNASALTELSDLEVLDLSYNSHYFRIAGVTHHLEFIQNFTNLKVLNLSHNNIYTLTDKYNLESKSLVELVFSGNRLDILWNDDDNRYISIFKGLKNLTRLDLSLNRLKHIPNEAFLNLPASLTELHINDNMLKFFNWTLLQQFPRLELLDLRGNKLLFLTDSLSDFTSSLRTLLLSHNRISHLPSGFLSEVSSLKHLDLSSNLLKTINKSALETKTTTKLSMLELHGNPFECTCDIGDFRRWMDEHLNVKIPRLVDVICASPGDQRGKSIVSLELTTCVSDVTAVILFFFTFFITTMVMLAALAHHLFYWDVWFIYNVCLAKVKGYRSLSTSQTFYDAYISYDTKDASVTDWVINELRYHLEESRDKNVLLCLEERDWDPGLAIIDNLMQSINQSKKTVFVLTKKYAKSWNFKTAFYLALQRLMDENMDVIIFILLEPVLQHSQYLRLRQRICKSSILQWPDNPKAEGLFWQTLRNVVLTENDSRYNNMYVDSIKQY
Procedure: as §1, §2

| IC50 [1] [nM] | IC50 [2] [nM] | IC50 [3] [nM] | Compound |
| --- | --- | --- | --- |
| < 100 | 100 to 1000 | < 100 | CC(C)c1c(-c2ccnc3[nH]ncc23)[nH]c2ccc(C3CCN(C4CCCNC4)CC3)cc12 (stereo not drawn) [Example 653, 4-(5-([1,3′-bipiperidin]-4-yl)-3-isopropyl-1H-indol-2-yl)-1H-pyrazolo[3,4-b]pyridine] |
| < 100 | 100 to 1000 | < 100 | CCc1c(-c2ccnc3[nH]ccc23)[nH]c2ccc(C3CCN(C4CCN(CC)CC4)CC3)cc12 [Example 837, 4-(3-ethyl-5-(1′-ethyl-[1,4′-bipiperidin]-4-yl)-1H-indol-2-yl)-1H-pyrrolo[2,3-b]pyridine] |
| 100 to 1000 | 100 to 1000 | 1000 to 50000 | CC(C)c1c(-c2c[nH]c3cccnc23)[nH]c2ccc(C3CCNCC3)cc12 [Example 19, 3-(3-isopropyl-5-(piperidin-4-yl)-1H-indol-2-yl)-1H-pyrrolo[3,2-b]pyridine] |
| < 100 | 1000 to 50000 | 100 to 1000 | Cc1cc(-c2[nH]c3ccc(C4CCN(C(=O)C[C@H](C)O)CC4)cc3c2C(C)C)cc2ncnn12 [Example 600, (S)-3-hydroxy-1-(4-(3-isopropyl-2-(5-methyl-[1,2,4]triazolo[1,5-a]pyridin-7-yl)-1H-indol-5-yl)piperidin-1-yl)butan-1-one] |
| 100 to 1000 | 100 to 1000 | 100 to 1000 | CC(C)c1c(-c2ccc3c(N)n[nH]c3c2)[nH]c2ccc(C3CCNCC3)cc12 [Example 84, 6-(3-isopropyl-5-(piperidin-4-yl)-1H-indol-2-yl)-1H-indazol-3-amine] |
| < 100 | 100 to 1000 | < 100 | Cc1nc[nH]c1CN1CCC(c2ccc3[nH]c(-c4ccnc5[nH]nc(C)c45)c(C(C)C)c3c2)CC1 [Example 874, 4-(3-isopropyl-5-(1-((4-methyl-1H-imidazol-5-yl)methyl)piperidin-4-yl)-1H-indol-2-yl)-3-methyl-1H-pyrazolo[3,4-b]pyridine] |
| < 100 | 1000 to 50000 | 100 to 1000 | CC(C)c1c(-c2ccc3nnnn3c2)[nH]c2ccc(C3CCN(CC(=O)N(C)C)CC3)cc12 [Example 301, 2-(4-(3-isopropyl-2-(tetrazolo[1,5-a]pyridin-6-yl)-1H-indol-5-yl)piperidin-1-yl)-N,N-dimethylacetamide] |
| < 100 | > 50000 | < 100 | CC(C)c1c(-c2cn(C)c3ncccc23)[nH]c2ccc(C3CCN(CCC#N)CC3)cc12 [Example 959, 3-(4-(3-isopropyl-2-(1-methyl-1H-pyrrolo[2,3-b]pyridin-3-yl)-1H-indol-5-yl)piperidin-1-yl)propanenitrile] |
| < 100 | 100 to 1000 | < 100 | CC(C)c1c(-c2ccnc3[nH]ncc23)[nH]c2ccc(C3CCN(C(=O)CN4CC[C@@H](O)C4)CC3)cc12 [Example 579, (R)-2-(3-hydroxypyrrolidin-1-yl)-1-(4-(3-isopropyl-2-(1H-pyrazolo[3,4-b]pyridin-4-yl)-1H-indol-5-yl)piperidin-1-yl)ethan-1-one] |
| 100 to 1000 | 1000 to 50000 | 100 to 1000 | Cc1cc(-c2[nH]c3ccc(C4CCNCC4)cc3c2C(C)C)cn2nncc12 [Example 70, 6-(3-isopropyl-5-(piperidin-4-yl)-1H-indol-2-yl)-4-methyl-[1,2,3]triazolo[1,5-a]pyridine] |
| < 100 | 100 to 1000 | < 100 | Cc1cc(-c2[nH]c3ccc(C4CCN(C(=O)CCN5CCCC5)CC4)cc3c2C(C)C)cn2nnnc12 [Example 618, 1-(4-(3-isopropyl-2-(8-methyltetrazolo[1,5-a]pyridin-6-yl)-1H-indol-5-yl)piperidin-1-yl)-3-(pyrrolidin-1-yl)propan-1-one] |
| 1000 to 50000 | 100 to 1000 | > 3130 | CNCCN1CCC(c2ccc3[nH]c(-c4ccc5ncccc5c4)c(C)c3c2)CC1 [Example 666, N-methyl-2-(4-(3-methyl-2-(quinolin-6-yl)-1H-indol-5-yl)piperidin-1-yl)ethan-1-amine] |
| 100 to 1000 | 1000 to 50000 | 100 to 1000 | CC(C)c1c(-c2ccc(Cl)c3[nH]ncc23)[nH]c2ccc(C3CCN(C(=O)CN(C)C)CC3)cc12 [Example 556, 1-(4-(2-(7-chloro-1H-indazol-4-yl)-3-isopropyl-1H-indol-5-yl)piperidin-1-yl)-2-(dimethylamino)ethan-1-one] |
